According to patent US11298395B2, “Isolates from spent turmeric for the management of rheumatoid arthritis” (SAMI LABS LIMITED, priority 2017, dated 2022):

Tested on: Adjuvant induced rheumatoid arthritis in rats
Assay: In vivo anti-arthritic activity: Freund's complete adjuvant induced arthritis in rats
Design: species or system Male Wistar rats
Conditions: reference group, dose not given
Procedure: Male Wistar rats weighing […] were orally dosed with 100, 200 and 400 mg/kg of spent turmeric polysaccharide from day 1-day 28. The animals were given intra-dermal injection of Freund's complete adjuvant in the paw at a dosage level of 0.1 ml on days 7, 15, 21 and 28 of the study to induce arthritis. Oedema induced by the adjuvant was measured as increase in paw volumes on days 7, 15, 21 and 28. At the end of the study, animals were sacrificed and blood and tissue collected for analyzing the inflammatory parameters. The inflammatory parameters studied included, • a. Inflammation in the paws • b. Blood Biochemistry • c. Lipid Per oxidation • d. Reduced Glutathione in serum • e. Superoxide dismutase activity in serum • f. Levels of Acid and Alkaline phosphatase • g. TNF-α levels • h. IL6 levels

## CC(=O)Oc1ccccc1C(=O)O [ASA, Acetyl salicylic acid]
  ACP (acid phosphatase): 6.71 ± 0.06 IU/ml
  ALP (alkaline phosphatase): 104.18 ± 0.94 IU/ml
  LIPID PEROXIDATION malondialdehyde formed: 18.19 ± 0.10 nm/g tissue
  Platelets: 232 ± 2.65 10^9/L
  Red blood corpuscles-RBCs: 4.70 ± 0.04 10^6 Cells /μl
  Reduced Glutathione: 595.69 ± 0.64 μg/g tissue
  SUPEROXIDE DISMUTASE: 16.39 ± 0.01 g activity in tissue/min
  White blood corpuscles-WBCs: 7800.0 ± 85.63 Cells/μl
